Source: patent US8865626B2, “Synergistically active herbicidal agents that are compatible with cultivated plants and contain herbicides from the group of benzoylpyrazoles” (Bayer Cropscience AG, priority 2006, dated 2014)

Columns and labels:
Assay type in all cases: in vivo
[1] = test system: STEME; experiment: Herbicidal post-emergence action against STEME; settings: visual rating 3 to 4 weeks after treatment
Procedure: (§1) Seeds of monocotyledonous and dicotyledonous weed and crop plants are placed into sandy loam in wood fiber pots or in plastic pots, covered with soil and cultivated in a greenhouse, including during the vegetation period outdoors outside of the greenhouse, under good growth conditions. 2-3 weeks after sowing, the test plants are treated at the one- to three-leaf stage. The test compounds, formulated as wettable powders (WP) or liquid (EC) are, in various dosages with a water application rate of 300 I/ha (converted), with added wetting agent (0.2 to 0.3%), sprayed onto the plants and the surface of the soil. 3 to 4 weeks after the treatment of the test plants, the effect of the preparations is rated visually in comparison to untreated controls (herbicidal effect in percent (%): 100% effect=plants have died, 0% effect=like control plants).
(§2) If it is additionally to be tested as to whether safeners can improve the plant compatibility of test substances in the case of crop plants, the following options are used for applying the safener: • seeds of the crop plants are, before sowing, dressed with the safener substance (the amount of safener is stated in percent, based on the weight of the seed) • before the application of the test substances, the crop plants are sprayed with the safener at a certain application rate per hectare (usually 1 day before the application of the test substances) • the safener is applied together with the test substance as a tank mix (the amount of safener is stated in g/ha or as a ratio, based on the herbicide).
(§3) By comparing the effect of the test substances on crop plants without or with safener treatment, it is possible to assess the effect of the safener substance.

[2] = test system: LAMPU; experiment: Herbicidal post-emergence action against LAMPU; settings: visual rating 3 to 4 weeks after treatment
Procedure: as §1, §3

[3] = test system: AVEFA; experiment: Herbicidal post-emergence action against AVEFA; settings: visual rating 3 to 4 weeks after treatment
Procedure: as §1, §3

[4] = test system: MATIN; experiment: Herbicidal post-emergence action against MATIN; settings: visual rating 3 to 4 weeks after treatment
Procedure: as §1, §2, §3

[5] = test system: summer wheat; experiment: Post-emergence damage to crop plant (safener test)
Procedure: as §1, with “plants). […]” for “plants).”

[6] = test system: VERHE; experiment: Herbicidal post-emergence action against VERHE; settings: visual rating 3 to 4 weeks after treatment
Procedure: as §1, §3

## Nc1cc(Cl)nc(C(=O)O)c1Cl [aminopyralid]
[1]; dosage 150 g of a.i./ha
  Activity against STEME: 65%

## CCOC(=O)C(Cl)Cc1cc(-n2nc(C)n(C(F)F)c2=O)c(F)cc1Cl (centres unmarked) [carfentrazone-ethyl]
[2]; dosage 25 g of a.i./ha
  Activity against LAMPU: 10%

## COCc1cnc(C2=NC(C)(C(C)C)C(=O)N2)c(C(=O)O)c1.N (centres unmarked) [imazamox-ammonium]
[3]; dosage 25 g of a.i./ha
  Activity against AVEFA: 60%

## CCOC(=O)C1=NN(c2ccc(Cl)cc2Cl)C(C)(C(=O)OCC)C1 (centres unmarked) [mefenpyr-diethyl]
[4]; dosage 9.4 g of a.i./ha
  Activity against MATIN: 0%
[1]; dosage 9.4 g of a.i./ha
  Activity against STEME: 0%

## COC(=O)c1ccc(CNS(C)(=O)=O)cc1S(=O)(=O)NC(=O)Nc1nc(OC)cc(OC)n1 [mesosulfuron-methyl]
[4]; dosage 7.5 g of a.i./ha
  Activity against MATIN: 50%
[5]; dosage 7.5 g of a.i./ha
  Damage to summer wheat: 15%

## Cc1nn(C)c(O)c1C(=O)c1ccc(C(F)(F)F)cc1S(C)(=O)=O [pyrasulfotole]
[3]; dosage 12.5 g of a.i./ha
  Activity against AVEFA: 40%
[4]; dosage 12.5 g of a.i./ha
  Activity against MATIN: 70%
[2]; dosage 12.5 g of a.i./ha
  Activity against LAMPU: 80%
[6]; dosage 12.5 g of a.i./ha
  Activity against VERHE: 40%
[5]; dosage 12.5 g of a.i./ha
  Damage to summer wheat: 20%
[1]; dosage 12.5 g of a.i./ha
  Activity against STEME: 60%

## COc1cc(OC)n2nc(NS(=O)(=O)c3c(C(F)(F)F)ccnc3OC)nc2n1 [pyroxsulam]
[6]; dosage 5 g of a.i./ha
  Activity against VERHE: 80%
